The target in the assay is T1, human recombinant dopamine D4.2 receptor (Homo sapiens, UniProt P21917, DEL265-296).
T1 construct: expressed in transfected cells; membranes
T1 sequence (P21917 with tags, fused parts or gaps DEL265-296): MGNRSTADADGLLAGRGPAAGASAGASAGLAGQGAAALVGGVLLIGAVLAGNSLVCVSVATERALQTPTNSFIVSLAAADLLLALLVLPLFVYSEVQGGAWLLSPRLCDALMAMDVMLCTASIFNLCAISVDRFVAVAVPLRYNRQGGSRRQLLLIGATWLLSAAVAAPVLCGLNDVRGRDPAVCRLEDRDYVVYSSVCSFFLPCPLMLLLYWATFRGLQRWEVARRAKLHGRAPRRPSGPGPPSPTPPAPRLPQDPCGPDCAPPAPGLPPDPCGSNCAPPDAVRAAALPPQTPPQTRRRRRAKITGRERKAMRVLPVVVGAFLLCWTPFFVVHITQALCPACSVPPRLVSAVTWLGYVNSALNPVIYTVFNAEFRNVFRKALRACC
The assay can be described thus: Receptor binding assay, D4.2 dopamine receptor ([3H]spiperone competition).

Consider 31 molecules from patent US6051605A, “Method of treating psychosis and schizophrenia” (priority 1999, dated 2000).

Structures are written as SMILES. Structures can show the parent of a compound that is named as a salt.

As for `COc1ccc(OCCCNCCCOc2ccc(OC)cc2)cc1` [Example 1q, Bis[3-(4-methoxy-phenoxy)-propyl]-amine hydrochloride], the Ki – broadly, the equilibrium dissociation constant of an inhibitor or competing ligand from its target – came to 1330 nM.

With `Cc1ccc(OCCNCCCOc2ccccc2)cc1` [Example 2, (3-Phenoxy-propyl)-(2-p-tolyloxy-ethyl)-amine hydrochloride], the inhibition constant (Ki) is 0.2 nM.

With `O=[N+]([O-])c1ccc(OCCNCCCOc2ccccc2)cc1` [Example 2a, [2-(4-Nitro-phenoxy)-ethyl]-(3-phenoxy-propyl)-amine hydrochloride], the Ki is 4.4 nM.

With `CC(C)(C)c1ccc(OCCNCCCOc2ccccc2)cc1` [Example 2b, [2-(4-tert-Butyl-phenoxy)-ethyl]-(3-phenoxy-propyl)-amine hydrochloride], the Ki came out at 20.9 nM.

As to `CCOc1ccc(OCCNCCCOc2ccccc2)cc1` [Example 2c, [2-(4-Ethoxy-phenoxy)-ethyl]-(3-phenoxy-propyl)-amine hydrochloride], the inhibition constant Ki amounted to 11.9 nM.

Turning to `c1ccc(OCCCNCCOc2ccc(-c3ccccc3)cc2)cc1` [Example 2e, [2-(Biphenyl-4-yloxy)-ethyl]-(3-phenoxy-propyl)-amine hydrochloride], the Ki stood at 383 nM.

Consider `Cc1ccc(OCCCNCCOc2ccc(C)cc2)cc1` [Example 3, (2-p-Tolyloxy-ethyl)-(3-p-tolyloxy-propyl)-amine hydrochloride], for which the Ki turned out to be 11.4 nM.

With `Cc1ccc(OCCNCCCOc2ccc(Br)cc2)cc1` [Example 3b, [3-(4-Bromo-phenoxy)-propyl]-(2-p-tolyloxy-ethyl)-amine hydrochloride], the Ki stood at 26.9 nM.

In the case of `Cc1ccc(OCCCNCCOc2ccc(Cl)cc2)cc1` [Example 3e, [2-(4-Chloro-phenoxy)-ethyl]-(3-p-tolyloxy-propyl)-amine hydrochloride], the inhibition constant (Ki) worked out at 5.6 nM.

With `Cc1ccc(OCCCNCCOc2ccccc2)cc1` [Example 3f, (2-Phenoxy-ethyl)-(3-p-tolyloxy-propyl)-amine hydrochloride], the inhibition constant (Ki) came to 2.7 nM.

Turning to `Clc1ccc(OCCNCCCOc2ccc(Br)cc2)cc1` [Example 3g, [3-(4-Bromo-phenoxy)-propyl]-[2-(4-chloro-phenoxy)-ethyl]-amine hydrochloride], the Ki is 37.8 nM.

`Fc1ccc(OCCCNCCOc2ccccc2)cc1` [Example 4, [3-(4-Fluoro-phenoxy)-propyl]-(2-phenoxy-ethyl)-amine hydrochloride]: the inhibition constant (Ki) turned out to be 1.2 nM.

As for `Brc1ccc(OCCCNCCCOc2ccc(Br)cc2)cc1` [Example 4a, Bis-[3-(4-bromo-phenoxy)-propyl]-amine hydrochloride], the Ki amounted to 45.8 nM.

For the molecule `Cc1ccc(OCCCNCCCOc2ccc(C)cc2)cc1` [Example 4b, Bis(3-p-tolyloxy-propyl)-amine hydrochloride], the Ki amounted to 136 nM.

As for `Cc1ccc(OCCNCCCOc2ccc(F)cc2)cc1` [Example 4c, [3-(4-Fluoro-phenoxy)-propyl]-(2-p-tolyloxy-ethyl)-amine hydrochloride], the inhibition constant (Ki) stood at 0.96 nM.

Consider `Cc1ccc(SCCNCCCOc2ccccc2)cc1` [Example 4d, (3-Phenoxy-propyl)-(2-p-tolylsulfanyl-ethyl)-amine hydrochloride], for which the Ki was found to be 30 nM.

For the molecule `Clc1ccc(SCCNCCCOc2ccccc2)cc1` [Example 4e, [2-(4-Chloro-phenylsulfanyl)-ethyl]-(3-phenoxy-propyl)-amine hydrochloride], the Ki is 33.1 nM.

For `Clc1ccc(OCCNCCCSc2ccccc2)cc1` [Example 4f, [2-(4-Chloro-phenoxy)-ethyl]-(3-phenylsulfanyl-propyl)-amine hydrochloride], the Ki is 1.7 nM.

On to `Cc1ccc(OCCNCCCSc2ccccc2)cc1` [Example 4g, (3-Phenylsulfanyl-propyl)-(2-p-tolyloxy-ethyl)-amine hydrochloride], for which the Ki turned out to be 1.2 nM.

Regarding `Fc1ccc(OCCCNCCOc2ccc(Cl)cc2)cc1` [Example 4h, [2-(4-Chloro-phenoxy)-ethyl]-[3-(4-fluoro-phenoxy)-propyl]-amine hydrochloride], the Ki turned out to be 0.84 nM.

Turning to `Cc1ccc(CCCNCCCOc2ccccc2)cc1` [Example 5, (3-Phenoxy-propyl)-(3-p-tolyl-propyl)-amine hydrochloride], the Ki turned out to be 4.7 nM.

With `COC(=O)c1ccc(OCCNCCCOc2ccccc2)cc1` [Example 6a, 4-[2-(3-Phenoxy-propylamino)-ethoxy]-benzoic acid methyl ester], the Ki was 10.9 nM.

`N#Cc1ccc(OCCNCCCOc2ccccc2)cc1` [Example 6b, 4-[2-(3-Phenoxy-propylamino)-ethoxy]-benzonitrile]: the inhibition constant Ki was 10.7 nM.

Regarding `Cc1ccc(OCCNCCOc2ccccc2)cc1` [Example 6d, (2-Phenoxy-ethyl)-(2-p-tolyloxy-ethyl)-amine hydrochloride], the Ki is 103 nM.

Take `Cc1ccc(OCCNCCOc2ccc(C)cc2)cc1` [Example 6e, Bis-(2-p-tolyloxy-ethyl)-amine hydrochloride]: the inhibition constant Ki is 74.9 nM.

Take `COc1ccc(OCCNCCCOc2ccccc2)cc1` [Example 9d, [2-(4-Methoxy-phenoxy)-ethyl]-(3-phenoxy-propyl)-amine hydrochloride]: the Ki was found to be 5.4 nM.

With `Oc1ccc(OCCNCCCOc2ccccc2)cc1` [Example 11, 4-[2-(3-Phenoxy-propylamino)-ethoxy]-phenol hydrobromide], the Ki worked out at 3.1 nM.

Take `O=C(O)c1ccc(OCCNCCCOc2ccccc2)cc1` [Example 15, 4-[2-(3-Phenoxy-propylamino)-ethoxy]-benzoic acid hydrochloride]: the inhibition constant (Ki) was greater than 1000 nM.

For `Cc1ccc(OCCNCC(O)COc2ccccc2)cc1` (stereo not shown) [Example 16g, 1-Phenoxy-3-(2-p-tolyloxy-ethylamino)-propan-2-ol], the Ki amounted to 1.3 nM.

Turning to `OC(CNCCOc1ccc(Cl)cc1)COc1ccccc1` (stereo not shown) [Example 16h, 1-[2-(4-Chloro-phenoxy)-ethylamino]-3-phenoxy-propan-2-ol], the Ki turned out to be 2.1 nM.

For the molecule `Brc1ccc(OCCCNCCOc2ccccc2)cc1` [Example 16i, [3-(4-Bromo-phenoxy)-propyl]-(2-phenoxy-ethyl)-amine hydrochloride], the inhibitory constant (Ki) came to 6.1 nM.
